Patent US20230174608A1, “Polypeptide Derivative Having Dual Receptor Agonistic Action and Use Thereof” (TIANJIN INSTITUTE OF PHARMACEUTICAL RESEARCH CO., LTD., priority 2020, published 2023)
Marks after values point to notes of the source that are not given here. Where a SMILES comes first, the peptide text is derived from it.

How the values were obtained:
[1] = system: diet-induced obesity (DIO) mice; test: Obese (DIO) model mice, 23 days of successive administration; assay type: in vivo, C57BL/6J Gpt mice; conditions: for Fasting blood glucose (mmol/L) before the last administration: fasted 16 h; for Fasting blood glucose (mmol/L) before the last administration / TC (total cholesterol) / TG (triglycerides): n=5; for Weight decreasing rate: 30 nmol/kg s.c. every day, without fasting before the last administration compared to day 1; for Examination of liver pathological section: HE stain, 2 animals; for TC (total cholesterol) / TG (triglycerides): after 23 days of administration
From the text: C57BL/6J Gpt mice (purchased from GemPharmatech (Jiangsu) Co., Ltd.) (6-8-week-old) were fed with H10060 high-fat diet (purchased from Beijing HFK Bioscience Co., Ltd.) to obtain diet-induced obesity (DIO) models, mice in a blank control group (n=5) were fed with standard diets, and all the mice were fed for 11 weeks after being purchased. One day before the first administration, the mice in the model group were randomly divided into 5 groups according to their weights (within a range of 39.5-49.5 g), i.e., a model control group, a positive control group, and test compound groups (dgc005, dgc016, and dgc020), respectively, 5 mice in each group, which were administered every day by subcutaneous injection. Saline was subcutaneously injected in the blank control group and the model control group every day. The administration was performed for 23 days. The positive control drug and the test compounds were administered at a dose of 30 nmol/kg, and the administration volume for each group was 0.005 mL/g weight. The mice were weighed before each administration, and 72-h food intake was weighed every three days. The mice fasted for 16 h before the last administration, fasting blood glucose levels were determined, blood was sampled from the orbital venous plexus to determine triglycerides and total cholesterol, and the liver was taken out for pathological section observation.
The liver of each C576L/6 mouse in the groups was fixed with 12% formaldehyde and prepared into a specimen, and the tissue block was repaired, dehydrated with graded alcohol, embedded in paraffin, stained with HE, and examined under a light microscope.

[2] = system: diet-induced obesity (DIO) mice; test: DIO mice, weight and blood glucose after multiple administrations at different doses; assay type: in vivo, C57BL/6N mice; conditions: for Fasting blood glucose (mmol/L) before the last administration / Blood glucose level (mmol/L) 0.5 h after glucose loading / Glycemic load reduction rate: Day 22; for Fasting blood glucose (mmol/L) before the last administration: fasted 16 h; for Blood glucose level (mmol/L) 0.5 h after glucose loading: glucose 1 g/kg intragastric 30 min after administration; for Glycemic load reduction rate: versus model control group; for Reduction rate of weight without fasting on day 21 compared to day 0: n=5
From the text: 40 C57BL/6N mice were purchased from Beijing Vital River Laboratory Animal Technology Co., Ltd. Mice in a model group (n=35) were fed with H10060 high-fat diets to obtain diet-induced obesity (DIO) models, mice in a blank control group (n=5) were fed with standard diets, and all the mice were fed for 36 weeks. On the day of the first administration, the mice in the model group were randomly divided into 7 groups according to their weights (within a range of 45-60 g), i.e., a model control group, positive control groups (semaglutide at doses of 10 nmol/kg and 30 nmol/kg, respectively), and test compound groups (dgc005 and dgc016 at doses of 10 nmol/kg and 30 nmol/kg, respectively), 5 mice in each group. The positive control drug and the test compounds were respectively subcutaneously injected into each mouse in the positive control groups and the test compound groups every day, saline was subcutaneously injected into each mouse in the blank control group and the model control group, and the administration was performed for 22 days (the administration volume for each group was 0.005 mL/g weight). The mice were weighed before each administration, and 72-h food intake was weighed every three days. The mice fasted for 16 h before the last administration, and 30 min after administration, a glucose solution (1 g/kg, the administration volume was 0.01 mL/g weight) was intragastrically administered to each mouse for glucose tolerance test. Blood glucose levels were determined 0.5 h after glucose loading.

[3] = system: glucose loaded normal mice; test: Glucose loading test on normal mice after single administration; assay type: in vivo, Kunming mice; conditions: for Blood glucose reduction rate (%) / Blood glucose level after glucose loading / Inhibition of the rise of blood glucose after glucose loading (in words): 30 nmol/kg single dose; for Blood glucose reduction rate (%): after glucose loading, versus model control group; for Blood glucose level after glucose loading: glucose 2.5 g/kg intragastric 60 min after administration, measured 30 min after loading; for Blood glucose level after glucose loading / Fasting blood glucose level: n=5; for Inhibition of the rise of blood glucose after glucose loading (in words): normal mice; for Fasting blood glucose level: normal mice fasted 6 h, 30 nmol/kg group
Procedure: The hypoglycemic action of each compound of Example 1 was assessed by a glucose loading test on normal mice after single administration.
Method: Kunming mice (male, with a weight of 20-22 g) were acclimated in a barrier environment animal room for 3 days, divided into a blank control group, a model control group, a positive control group, and test compound groups, 5 mice in each group, and fasted for 6 h. Saline was administered to each mouse in the blank control group and the model control group, the compounds and a positive control drug were respectively administered to each mouse in the test compound groups and the positive control group at a dose of 30 nmol/kg, and the positive control drug was semaglutide. 60 min after administration, glucose was intragastrically administered to each mouse in the model control group, the positive control group, and the test compound groups at a dose of 2.5 g/kg (0.01 mL·g^−1 weight), distilled water was administered to each mouse in the blank control group, and blood glucose levels were determined 30 min after glucose loading.

[4] = biological target: T1, GLP-1R (Homo sapiens, UniProt P43220); test: GLP-1 receptor-mediated cAMP production in vitro; assay type: cell-based; conditions: HEK293 cell line stably expressing GLP-1R
T1 construct: expressed in transfected cells
In short: (§1)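 HEK293 cells stably expressing human GLP-1R or GCGR are stimulated with compound for 30 min in the dark in serum-free medium with 0.5 mM IBMX, with test dilutions spanning 1 μM down to 10^−3 nM. cAMP is detected after a 60 min room-temperature reaction as the 665/615 nm ratio.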

[5] = biological target: T2, GCGR (Homo sapiens, UniProt P47871); test: GC receptor-mediated cAMP production in vitro; assay type: cell-based; conditions: HEK293 cell line stably expressing GCGR
T2 construct: expressed in transfected cells
In short: as §1

[6] = day 4 of administration, 30 nmol/kg s.c. daily
[7] = day 7 of administration, 30 nmol/kg s.c. daily
[8] = day 10 of administration, 30 nmol/kg s.c. daily
[9] = day 13 of administration, 30 nmol/kg s.c. daily

T2 sequence (P47871 26-477, species assumed): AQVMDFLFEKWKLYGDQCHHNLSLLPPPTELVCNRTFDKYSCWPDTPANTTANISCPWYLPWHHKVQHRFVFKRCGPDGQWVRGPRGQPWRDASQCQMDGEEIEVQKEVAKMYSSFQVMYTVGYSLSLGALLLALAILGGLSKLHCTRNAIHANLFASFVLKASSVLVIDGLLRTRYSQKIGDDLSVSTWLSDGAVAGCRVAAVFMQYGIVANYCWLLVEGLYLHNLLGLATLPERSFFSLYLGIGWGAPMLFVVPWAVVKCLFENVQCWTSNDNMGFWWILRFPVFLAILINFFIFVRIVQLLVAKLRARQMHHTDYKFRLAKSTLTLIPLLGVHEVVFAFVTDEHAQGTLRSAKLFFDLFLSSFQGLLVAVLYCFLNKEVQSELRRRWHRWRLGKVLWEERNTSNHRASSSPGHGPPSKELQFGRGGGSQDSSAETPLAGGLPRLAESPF
T1 sequence (P43220 24-463, species assumed): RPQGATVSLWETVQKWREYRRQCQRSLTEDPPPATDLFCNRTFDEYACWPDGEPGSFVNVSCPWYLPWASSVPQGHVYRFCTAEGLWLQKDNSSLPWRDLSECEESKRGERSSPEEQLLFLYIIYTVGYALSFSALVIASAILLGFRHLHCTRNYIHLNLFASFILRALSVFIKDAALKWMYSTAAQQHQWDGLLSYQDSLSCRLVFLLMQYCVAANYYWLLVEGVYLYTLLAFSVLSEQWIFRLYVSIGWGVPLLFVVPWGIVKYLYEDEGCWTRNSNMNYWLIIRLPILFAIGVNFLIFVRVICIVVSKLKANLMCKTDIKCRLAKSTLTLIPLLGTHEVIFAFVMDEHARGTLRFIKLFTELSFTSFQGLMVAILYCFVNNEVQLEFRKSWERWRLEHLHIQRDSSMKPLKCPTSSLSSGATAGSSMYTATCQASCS

Compound	Fasting blood glucose (mmol/L) before the last administration ([1]; 30 nmol/kg s.c. daily, 23 days)	Weight decreasing rate [1]	Effect on triglycerides (in words) ([1]; 23 days, 30 nmol/kg s.c. daily)	Examination of liver pathological section ([1]; 23 days, 30 nmol/kg s.c. daily)	TC (total cholesterol) ([1]; 30 nmol/kg s.c. daily)	TG (triglycerides) ([1]; 30 nmol/kg s.c. daily)	72-h food intake [1, 6]	72-h food intake [1, 7]	72-h food intake [1, 8]	72-h food intake [1, 9]	Fasting blood glucose (mmol/L) before the last administration ([2]; 10 nmol/kg s.c. daily)	Blood glucose level (mmol/L) 0.5 h after glucose loading ([2]; 10 nmol/kg s.c. daily)	Glycemic load reduction rate ([2]; 10 nmol/kg s.c. daily)	Reduction rate of weight without fasting on day 21 compared to day 0 ([2]; 10 nmol/kg s.c. every day)	Fasting blood glucose (mmol/L) before the last administration ([2]; 30 nmol/kg s.c. daily)	Blood glucose level (mmol/L) 0.5 h after glucose loading ([2]; 30 nmol/kg s.c. daily)	Glycemic load reduction rate ([2]; 30 nmol/kg s.c. daily)	Reduction rate of weight without fasting on day 21 compared to day 0 ([2]; 30 nmol/kg s.c. every day)	Blood glucose reduction rate (%) [3]	Blood glucose level after glucose loading [3]	further results
CCCCCCCCCCCCCCCC(=O)N[C@@H](CCC(=O)N[C@@H](CCC(=O)NCCCC[C@H](NC(=O)[C@H](C)NC(=O)[C@H](C)NC(=O)[C@H](CCCNC(=N)N)NC(=O)[C@H](CCC(=O)O)NC(=O)[C@H](CCC(=O)O)NC(=O)[C@H](CC(C)C)NC(=O)[C@H](Cc1ccc(O)cc1)NC(=O)[C@H](CCCCN)NC(=O)[C@H](CO)NC(=O)[C@H](Cc1ccc(O)cc1)NC(=O)[C@H](CC(=O)O)NC(=O)[C@H](CO)NC(=O)[C@@H](NC(=O)[C@H](Cc1ccccc1)NC(=O)[C@@H](NC(=O)CNC(=O)[C@H](CCC(N)=O)NC(=O)C(C)(C)NC(=O)[C@@H](N)Cc1c[nH]cn1)[C@@H](C)O)[C@@H](C)O)C(=O)N[C@@H](CCC(=O)O)C(=O)N[C@@H](Cc1ccccc1)C(=O)N[C@H](C(=O)N[C@@H](C)C(=O)N[C@@H](Cc1c[nH]c2ccccc12)C(=O)N[C@@H](CC(C)C)C(=O)N[C@@H](CCC(=O)O)C(=O)N[C@@H](C)C(=O)NCC(=O)NCC(N)=O)[C@@H](C)CC)C(=O)O)C(=O)O [dgc005] (HELM PEPTIDE1{H.[Aib].Q.G.T.F.T.S.D.Y.S.K.Y.L.E.E.R.A.A.K.E.F.I.A.W.L.E.A.G.G.[am]}|PEPTIDE2{[CCCCCCCCCCCCCCCC(=O)[*:2]].[gGlu].[gGlu]}$PEPTIDE1,PEPTIDE2,20:R3-3:R2$$$V2.0; N-terminus assumed)	4.60 ± 0.34 mmol/L	27%	significantly reduce triglycerides (TGs)	no obvious pathological changes are seen in portal areas and interstitium	3.07 ± 0.50 mmol/L	0.58 ± 0.10**^#ΔΔ mmol/L	2.50 g/mouse	3.80 g/mouse	4.20 g/mouse	4.60 g/mouse	5.34 ± 1.20 mmol/L	7.52 ± 0.77 mmol/L	28.52	18.41%	4.22 ± 2.13 mmol/L	7.82 ± 1.09 mmol/L	25.66	21.39%	60.59%	6.70 ± 1.88**^ mmol/L	Effect on total cholesterol (in words) ([1]; 23 days, 30 nmol/kg s.c. daily): reduced total cholesterol (TC) in a certain extent; Inhibition of the rise of blood glucose after glucose loading (in words) [3]: equivalent to that of the positive control drug; Fasting blood glucose level [3]: 3.96 ± 0.62 mmol/L; EC50 [4]: 0.484 nM; EC50 [5]: 1.16 nM
CCCCCCCCCCCCCCCC(=O)N[C@@H](CCC(=O)N[C@@H](CCC(=O)NCCCC[C@H](NC(=O)[C@H](C)NC(=O)[C@H](C)NC(=O)[C@H](CCCNC(=N)N)NC(=O)[C@H](CCC(=O)O)NC(=O)[C@H](CCC(=O)O)NC(=O)[C@H](CC(C)C)NC(=O)[C@H](Cc1ccc(O)cc1)NC(=O)[C@H](CCCCN)NC(=O)[C@H](CO)NC(=O)[C@H](Cc1ccc(O)cc1)NC(=O)[C@H](CC(=O)O)NC(=O)[C@H](CO)NC(=O)[C@@H](NC(=O)[C@H](Cc1ccccc1)NC(=O)[C@@H](NC(=O)CNC(=O)[C@H](CCC(N)=O)NC(=O)C(C)(C)NC(=O)[C@@H](N)Cc1c[nH]cn1)[C@@H](C)O)[C@@H](C)O)C(=O)N[C@@H](CCC(=O)O)C(=O)N[C@@H](Cc1ccccc1)C(=O)N[C@H](C(=O)N[C@@H](C)C(=O)N[C@@H](Cc1c[nH]c2ccccc12)C(=O)N[C@@H](CC(C)C)C(=O)N[C@@H](CCC(=O)O)C(=O)NCC(=O)NCC(N)=O)[C@@H](C)CC)C(=O)O)C(=O)O [dgc016] (HELM PEPTIDE1{H.[Aib].Q.G.T.F.T.S.D.Y.S.K.Y.L.E.E.R.A.A.K.E.F.I.A.W.L.E.G.G.[am]}|PEPTIDE2{[CCCCCCCCCCCCCCCC(=O)[*:2]].[gGlu].[gGlu]}$PEPTIDE1,PEPTIDE2,20:R3-3:R2$$$V2.0; N-terminus assumed)	4.18 ± 0.40 mmol/L	29.3%	has a triglyceride reduction action	no obvious pathological changes are seen in portal areas and interstitium	3.32 ± 0.73 ^ mmol/L	0.75 ± 0.10**^ΔΔ mmol/L	3.30 g/mouse	4.80 g/mouse	6.10 g/mouse	5.70 g/mouse	4.68 ± 2.12 mmol/L	7.12 ± 0.61**^Δ mmol/L	32.32	17.56%	5.02 ± 2.34 mmol/L	7.48 ± 0.78 mmol/L	28.90	19.92%	59.88%	6.82 ± 1.78**^ mmol/L	Inhibition of the rise of blood glucose after glucose loading (in words) [3]: equivalent to that of the positive control drug; Fasting blood glucose level [3]: 3.66 ± 0.77 mmol/L; EC50 [4]: 1.23 nM; EC50 [5]: 0.342 nM
